Test results from patent US20180369203A1, “METHODS OF TREATING CANCER BY ADMINISTERING A MEK INHIBITOR IN COMBINATION WITH A PROTEASOME INHIBITOR” (The Jackson Laboratory, priority 2015, published 2018).

Test system: A2058 cells
Assay: A2058 s.c. melanoma xenograft in NOD/SCID mice
Type: in vivo
Procedure: FIGS. 6A-N show combined MEK and proteasome inhibition exerts potent tumor-suppressive effects. (A) After treatments with 20 nM AZD6244, 100 nM Bortezomib, or both for 24 hr, viable cells were quantitated by CellTiter® Blue (mean±SD, n=6, ANOVA). (B and C) 1×10^6 A2058 cells were s.c. injected into NOD/SCID mice. After 7 days, mice were treated with DMSO, 5 mg/Kg AZD6244, 0.5 mg/Kg Bortezomib, or the combination via i.p. injection three times a week. Tumor volumes were measured using a caliper weekly (mean±SEM, ANOVA). Tumor growth curves were fitted to exponential growth models to derive tumor-doubling time (DT). Kaplan-Meier survival curve was plotted for each group (Log-rank test). (D) Proteins were detected by immunoblotting, 3 tumors per group. (E) Tumor lysates were used to quantitate AOs, 5 tumors per group (mean±SD, n=3, ANOVA). (F) Tumor lysates were used to seed Aβ1-42 peptides, 5 tumors per group (mean±SD, n=3, ANOVA). (G-H) Tumor sections were stained with CR, 5 tumors per group. Ten random fields were taken for each section. Scale bar: 50 μm. Total CR fluorescence in each field was quantitated using ImageJ and normalized against total nuclei (median, n=50, ANOVA). (I) Following CR staining, tumor sections were visualized under polarized light microscopy. Scale bar: 50 μm. (J) Following staining with AF-specific antibodies (OC), sections of tumors receiving combined treatment were further stained with CR. Scale bar: 50 μm. […] Body weights were monitored weekly (mean±SD, n=10, ANOVA). […]
FIG. 13A-J illustrates combined MEK and proteasome inhibition disrupts proteostasis and impedes in vivo tumor growth. […] Body weights were recorded before xenografting and at sacrifice. […] Quantitation of immunoblotting results in FIG. 6D (mean±SD, n=3, ANOVA). […] Lys48-specific protein ubiquitination and caspase 3 cleavage were measured by immunoblotting in 3 spleens per group.
A2058 cells were s.c. injected into the left flanks of 9-week-old female NOD.CB17-Prkdc/J (NOD/SCID) mice (The Jackson Laboratory). […] Tumor volumes were calculated following the formula 4/3πR^3. […]

CC(C)C[C@H](NC(=O)[C@H](Cc1ccccc1)NC(=O)c1cnccn1)B(O)O [Bortezomib, bortezomib]
growth of xenografted melanomas (5 mg/Kg AZD6244, 0.5 mg/Kg Bortezomib or combination, i.p. three times a week): no significant impacts | HSF1 Ser326 phosphorylation and HSP expression in tumors (stress response) (tumor immunoblotting): induced | ubiquitination in tumors (tumor immunoblotting, 3 tumors per group): slightly elevated
